According to the NIST ThermoML archive (doi:10.1021/acs.jced.9b00419):
Values joined by “and” are separate entries in the source; they are usually repeats but may differ in a detail not shown here. Identical values can stand only once.

Conditions: Liquid, Transpiration method

CCCCCCOC(=O)CCCCC [hexanoic acid, hexyl ester]
Conditions | vapor or sublimation pressure
298.4 K | 0.00313 kPa
303.2 K | 0.0049 kPa
308 K | 0.00732 kPa
312.8 K | 0.01166 kPa and 0.01116 kPa
317.7 K | 0.01667 kPa
322.6 K | 0.0257 kPa
327.5 K | 0.03605 kPa
332.4 K | 0.05276 kPa
337.3 K | 0.07541 kPa
342.3 K | 0.1055 kPa
347.3 K | 0.1426 kPa and 0.1453 kPa

CCCCCCC(CO)CCCC (stereo unspecified) [2-butyl-1-octanol]
Conditions | vapor or sublimation pressure [kPa]
308.1 K | 0.00112
312.9 K | 0.00195
317.8 K | 0.00325
322.7 K | 0.00526
327.6 K | 0.00824
332.5 K | 0.01315
337.5 K | 0.02027
342.6 K | 0.03024
347.6 K | 0.0452
352.6 K | 0.06767
